Several values for one entry are separate records, joined by “and”; a condition that tells them apart may be missing. Equal values may be shown once.
Tests used:
[1] = biological target: human NR1/NR2A (Homo sapiens (Human), UniProt Q05586+Q12879); assay: NR2A antagonist activity, Fluo-4 calcium influx assay in HEK293 cells; format: cell-based
Procedure: (§1) Activation of the NR2A or NR2B subtype of NMDA receptor with glutamate as an agonist and glycine co-agonist on these cells results in calcium influx, which can be monitored with fluorescent indicator Fluo-4.
(§2) For experiments, the cells were seeded onto poly-D-lysine-coated 96-well black plates with clear bottom (Corning) at a density of ˜50,000 cells/well. After overnight culture, the growth medium was removed from the wells and the cells were incubated at 37° C. for 60 min in Hanks buffer containing 4 μM fluo-4-AM (Invitrogen) and 0.1% bovine serum albumin (BSA). After dye-loading, the cells were washed three times with Hanks buffer and incubated for 10 min at room temperature with various concentrations of test compounds prepared in Hanks buffer with 0.1% BSA. The cell plates were placed onto FDSS μCell fluorescence reader (Hamamatsu). After 20 sec reading of background fluorescence, agonist glutamate at final 100 μM and co-agonist glycine at final 50 μM were added to the cells to activate the receptor, and the resulting fluorescence changes were recorded and quantified.

[2] = biological target: human NR1/NR2B (Homo sapiens (Human), UniProt Q13224); assay: NR2B antagonist activity, Fluo-4 calcium influx assay in HEK293 cells; format: cell-based; conditions: HEK293 cells stably expressing NR2B; glutamate 100 μM, glycine 50 μM
Chain of human NR1/NR2B (Q13224 27-1484, other chains not shown): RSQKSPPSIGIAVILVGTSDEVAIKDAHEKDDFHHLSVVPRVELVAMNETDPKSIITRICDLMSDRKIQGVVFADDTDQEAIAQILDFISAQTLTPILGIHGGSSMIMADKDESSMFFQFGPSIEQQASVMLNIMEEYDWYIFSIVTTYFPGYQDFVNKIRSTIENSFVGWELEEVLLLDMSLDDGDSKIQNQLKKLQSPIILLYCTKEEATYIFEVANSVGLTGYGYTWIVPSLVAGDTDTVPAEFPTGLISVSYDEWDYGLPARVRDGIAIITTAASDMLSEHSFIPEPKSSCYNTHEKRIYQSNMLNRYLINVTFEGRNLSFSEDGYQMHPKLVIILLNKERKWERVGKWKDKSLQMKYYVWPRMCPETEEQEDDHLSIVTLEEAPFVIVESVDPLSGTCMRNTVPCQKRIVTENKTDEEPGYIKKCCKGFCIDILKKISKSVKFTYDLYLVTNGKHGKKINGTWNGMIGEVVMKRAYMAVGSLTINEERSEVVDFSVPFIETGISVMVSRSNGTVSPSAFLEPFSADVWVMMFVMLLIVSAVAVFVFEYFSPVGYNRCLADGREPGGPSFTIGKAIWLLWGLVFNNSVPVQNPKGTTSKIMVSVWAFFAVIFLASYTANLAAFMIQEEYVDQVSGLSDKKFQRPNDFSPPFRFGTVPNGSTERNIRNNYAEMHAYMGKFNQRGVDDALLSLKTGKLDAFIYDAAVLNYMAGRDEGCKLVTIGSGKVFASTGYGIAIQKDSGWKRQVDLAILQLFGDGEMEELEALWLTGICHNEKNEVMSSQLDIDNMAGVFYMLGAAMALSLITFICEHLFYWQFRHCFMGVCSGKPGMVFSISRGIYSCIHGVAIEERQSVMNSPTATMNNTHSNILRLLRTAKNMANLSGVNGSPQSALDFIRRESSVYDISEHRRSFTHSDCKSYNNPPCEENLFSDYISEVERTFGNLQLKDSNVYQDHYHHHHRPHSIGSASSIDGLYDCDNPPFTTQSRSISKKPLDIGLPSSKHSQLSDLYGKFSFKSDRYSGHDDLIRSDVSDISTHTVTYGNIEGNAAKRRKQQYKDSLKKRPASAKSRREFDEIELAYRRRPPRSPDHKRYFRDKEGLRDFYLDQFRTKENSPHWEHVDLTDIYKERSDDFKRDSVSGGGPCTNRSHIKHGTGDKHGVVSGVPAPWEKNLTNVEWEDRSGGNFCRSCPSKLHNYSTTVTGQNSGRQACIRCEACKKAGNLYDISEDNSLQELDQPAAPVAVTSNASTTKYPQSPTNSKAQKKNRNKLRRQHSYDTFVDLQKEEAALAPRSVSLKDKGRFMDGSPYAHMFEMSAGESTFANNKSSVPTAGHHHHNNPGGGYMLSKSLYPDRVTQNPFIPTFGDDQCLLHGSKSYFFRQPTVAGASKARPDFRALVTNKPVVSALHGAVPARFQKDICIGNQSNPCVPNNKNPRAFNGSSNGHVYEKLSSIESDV
Procedure: as §1, §2

[3] = biological target: hERG channel (Homo sapiens (Human), UniProt Q12809); assay: hERG channel inhibition, whole cell patch clamp in HEK293 cells; format: cell-based; conditions: hERG stably expressed in HEK293 cells
Chain of hERG channel (Q12809 whole entry): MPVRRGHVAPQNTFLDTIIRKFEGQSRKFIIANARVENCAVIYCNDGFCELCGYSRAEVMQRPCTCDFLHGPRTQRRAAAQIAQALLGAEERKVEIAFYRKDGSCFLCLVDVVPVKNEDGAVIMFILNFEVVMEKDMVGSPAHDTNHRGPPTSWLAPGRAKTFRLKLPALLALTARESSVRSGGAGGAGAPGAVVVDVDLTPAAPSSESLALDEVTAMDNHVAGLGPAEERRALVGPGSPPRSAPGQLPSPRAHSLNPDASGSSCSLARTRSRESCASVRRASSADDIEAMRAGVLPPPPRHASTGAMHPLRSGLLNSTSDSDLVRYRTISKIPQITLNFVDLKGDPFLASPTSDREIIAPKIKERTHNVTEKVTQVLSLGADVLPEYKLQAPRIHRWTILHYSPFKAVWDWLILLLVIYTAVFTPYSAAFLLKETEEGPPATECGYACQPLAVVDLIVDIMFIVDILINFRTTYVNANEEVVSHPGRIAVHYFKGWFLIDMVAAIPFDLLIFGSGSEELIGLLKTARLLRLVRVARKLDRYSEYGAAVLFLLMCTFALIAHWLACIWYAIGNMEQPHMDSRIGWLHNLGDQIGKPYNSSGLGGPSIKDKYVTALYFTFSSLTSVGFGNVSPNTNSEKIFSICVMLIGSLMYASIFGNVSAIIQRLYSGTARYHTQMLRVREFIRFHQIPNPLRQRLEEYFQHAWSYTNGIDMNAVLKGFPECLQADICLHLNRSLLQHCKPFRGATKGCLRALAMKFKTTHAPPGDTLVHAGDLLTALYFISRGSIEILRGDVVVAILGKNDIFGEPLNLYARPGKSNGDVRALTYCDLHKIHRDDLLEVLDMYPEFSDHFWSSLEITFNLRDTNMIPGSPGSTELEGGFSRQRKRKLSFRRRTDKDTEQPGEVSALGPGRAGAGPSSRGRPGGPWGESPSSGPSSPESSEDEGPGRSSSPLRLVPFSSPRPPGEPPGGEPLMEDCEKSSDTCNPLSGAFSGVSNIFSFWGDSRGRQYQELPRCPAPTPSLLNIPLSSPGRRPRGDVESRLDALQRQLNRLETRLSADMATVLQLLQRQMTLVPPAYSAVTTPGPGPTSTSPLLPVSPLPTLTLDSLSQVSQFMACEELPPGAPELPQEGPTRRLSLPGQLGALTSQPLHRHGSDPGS
Procedure: The assay was performed on hERG channel stably expressed in HEK293 cells. The cells were cultured at 37° C. in a humidified CO2 incubator in the growth medium consisting of DMEM, 10% fetal bovine serum and antibiotics. Prior to the assay, the cells were seeded onto a 12 mm PDL-coated glass coverslip and cultured in a 35 mm Petri dish. After 16 to 40 hr culture, the cover slip was transferred into the chamber of OctaFlow perfusion system (ALA Instrument) and under a constant flow of extracellular solution (140 mM NaCl, 4 M KCl, 1 mM MgCl2, 1 mM CaCl2, 10 mM HEPES, 10 mM D-glucose, pH 7.35, osmolarity 290). Whole cell patch clamping was performed with a glass micropipette filled with intracellular solution (120 mM KCl, 1.75 mM MgCl2, 10 mM HEPES, 10 mM EGTA, and 4 mM ATP-K2, PH 7.2, osmolarity 300). Giga-seal was maintained during the test. The voltage control and current measurement were carried out using Axon amplifier 700B, Digidata 1440A and CLAMPEX10 software (Molecular Devices). Whole-cell hERG currents were recorded following the Petroski protocol: the cell was held at −80 mV, and the voltage step jumped from −80 to 30 mV and stay for 2 sec with a 20 ms prepulse at −40 mV. After depolarization, the voltage was decreased to −40 mV and stay for 2 sec, and returned back to −80 mV. Test compound was applied by quartz capillary tubes tip (200 μm inner diameter), and the flow rate was controlled at 2-3 ml/min with OctaFlow perfusion system. Different concentrations of the compound were applied to the cells for 5 min and the hERG current was measured three times before, during and after compound treatment. The data were analyzed using Clampfit 10 software (Molecular Devices).

[4] = test system: Male mice (strain NLMN); assay: Forced swim test; format: in vivo
Procedure: Mice that are forced to swim in a situation from which they cannot escape, rapidly become immobile. Drugs with antidepressant activity, such as imipramine, reduce the amount of time spent in the immobile state. […] All animals were housed in a temperature (22-24° C.) and humidity (50-60%) controlled environment with free access to food and water on a 12-hour light-dark cycle. Test compounds were dissolved in 0.5% dimethylsulfoxide, 4% hydroxypropyl-b-cyclodextrin water to generate the appropriate dosing solution. Drugs were administered by intraperitoneal injection at a dose volume of 10 mL/kg. Testing was initiated 20-60 minutes after dosing. […] Mice were placed in a white plastic cylinder 20 cm high with a diameter of 21 cm containing 10 cm of water at 25±2° C. The mice were videotaped for 6 minutes, and the last 4 minutes of video were analyzed by a blinded observer off-line. The observer judged the animal to be immobile when it ceased all activity (struggling, swimming, jumping etc.) and floated passively atop the water. The amount of time each animal spent in the immobile state was recorded and used for statistical analysis of compound effect. Group differences were evaluated by student's t-test or one-way ANOVA followed by post-hoc Dunnett's test.

[5] = biological target: CYP2D6 (Homo sapiens (Human), UniProt P10635); assay: CYP P450 enzyme inhibition in pooled human liver microsome
Chain of CYP2D6 (P10635 whole entry): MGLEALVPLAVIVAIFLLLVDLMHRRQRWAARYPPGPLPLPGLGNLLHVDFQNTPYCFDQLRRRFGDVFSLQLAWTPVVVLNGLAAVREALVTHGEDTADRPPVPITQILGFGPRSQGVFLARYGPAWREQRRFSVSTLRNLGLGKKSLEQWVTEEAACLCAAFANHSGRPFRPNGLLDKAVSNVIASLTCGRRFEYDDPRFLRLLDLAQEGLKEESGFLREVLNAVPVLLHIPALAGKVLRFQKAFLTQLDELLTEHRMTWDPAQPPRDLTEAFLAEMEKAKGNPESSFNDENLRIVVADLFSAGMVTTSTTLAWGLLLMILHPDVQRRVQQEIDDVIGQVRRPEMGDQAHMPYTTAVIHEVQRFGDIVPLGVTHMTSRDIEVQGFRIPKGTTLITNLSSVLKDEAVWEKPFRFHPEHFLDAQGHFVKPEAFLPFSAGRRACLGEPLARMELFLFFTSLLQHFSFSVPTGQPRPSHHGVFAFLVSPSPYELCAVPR
Procedure: Those CYP isoforms and their corresponding probe substrates are as follows: CYP1A2 (phenacetin, 30 μM), CYP2C9 (tolutamide, 100 μM), CYP2C19 (S-mephenytoin, 40 μM), CYP2D6 (dextromethorphan, 5 μM) and CYP3A4 (midazolam, 1 μM). All probe substrates were used at concentrations near or below their Kms. For experiment, a reaction mixture of test compound at 10 uM or in serial dilution, CYP probe substrate described above and 0.2 mg/mL pooled HLM in phosphate buffer, pH 7.4 in a final volume of 200 μL was pre-incubated at 37° C. for 10 minutes in triplicate. The reaction was initiated by addition of NADPH at final concentration of 1 mM. […] The samples were then centrifuged at 13,000 rpm and the supernatants were injected to LC-MS/MS (Agilent Technologies) to quantify the concentration of the specific metabolites of the probe substrates formed by individual CYP450 isoforms. The inhibition ratio is calculated as: (Mt−M0)/Mwater×100% • in which Mt and M0 represent the concentrations of the specific probe substrate metabolite, which was formed by individual CYP450 isoform, at the beginning and end of the reaction in the presence of test compound; while Mwater represents the concentration of the specific metabolite at the end of the reaction in the absence of test compound. […]

Chain of human NR1/NR2A (Q12879 23-1464, other chains not shown): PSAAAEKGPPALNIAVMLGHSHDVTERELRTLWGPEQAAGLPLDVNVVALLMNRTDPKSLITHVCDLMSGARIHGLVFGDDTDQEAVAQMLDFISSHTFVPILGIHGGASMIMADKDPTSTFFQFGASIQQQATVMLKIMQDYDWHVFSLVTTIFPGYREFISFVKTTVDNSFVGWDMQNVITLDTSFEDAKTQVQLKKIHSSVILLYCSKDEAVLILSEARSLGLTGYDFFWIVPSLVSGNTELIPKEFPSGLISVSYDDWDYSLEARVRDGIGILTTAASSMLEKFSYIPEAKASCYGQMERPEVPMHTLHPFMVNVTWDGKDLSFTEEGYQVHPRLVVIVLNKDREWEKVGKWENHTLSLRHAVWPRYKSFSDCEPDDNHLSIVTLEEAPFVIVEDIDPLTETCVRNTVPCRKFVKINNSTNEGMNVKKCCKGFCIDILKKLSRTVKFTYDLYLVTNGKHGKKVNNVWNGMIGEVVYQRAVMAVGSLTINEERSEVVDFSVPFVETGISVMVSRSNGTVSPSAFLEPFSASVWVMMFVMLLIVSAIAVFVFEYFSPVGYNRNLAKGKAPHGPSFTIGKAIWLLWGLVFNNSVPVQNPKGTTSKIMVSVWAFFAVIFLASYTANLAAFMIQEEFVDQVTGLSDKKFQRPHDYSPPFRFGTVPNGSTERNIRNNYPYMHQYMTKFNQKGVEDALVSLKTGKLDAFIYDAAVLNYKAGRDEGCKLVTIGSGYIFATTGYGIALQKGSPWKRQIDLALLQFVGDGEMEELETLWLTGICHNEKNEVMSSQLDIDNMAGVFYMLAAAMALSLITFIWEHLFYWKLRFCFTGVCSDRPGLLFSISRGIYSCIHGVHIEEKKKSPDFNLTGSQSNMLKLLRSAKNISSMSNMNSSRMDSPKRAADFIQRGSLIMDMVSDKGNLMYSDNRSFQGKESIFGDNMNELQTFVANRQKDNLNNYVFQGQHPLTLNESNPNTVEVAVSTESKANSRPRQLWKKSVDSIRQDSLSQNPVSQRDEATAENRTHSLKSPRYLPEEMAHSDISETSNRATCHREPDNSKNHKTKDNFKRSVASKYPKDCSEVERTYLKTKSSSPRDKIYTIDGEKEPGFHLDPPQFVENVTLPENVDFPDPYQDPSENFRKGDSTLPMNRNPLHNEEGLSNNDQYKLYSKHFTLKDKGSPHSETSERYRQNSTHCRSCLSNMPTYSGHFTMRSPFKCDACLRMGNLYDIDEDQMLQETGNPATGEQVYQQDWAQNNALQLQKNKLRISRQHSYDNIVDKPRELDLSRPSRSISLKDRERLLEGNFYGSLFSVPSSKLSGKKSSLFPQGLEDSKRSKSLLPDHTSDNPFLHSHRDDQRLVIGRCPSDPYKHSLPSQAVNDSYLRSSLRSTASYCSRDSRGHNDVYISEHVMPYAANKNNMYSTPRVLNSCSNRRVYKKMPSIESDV

What does the source list for FC(F)(CN1CCC(Nc2ncnc3[nH]ncc23)CC1)c1ccccn1 [C-1, N-(1-(2,2-difluoro-2-(pyridin-2-yl)ethyl)piperidin-4-yl)-1H-pyrazolo[3,4-d]pyrimidin-4-amine]?
IC50 [1]: > 10000 nM; IC50 [2]: 178 nM

With FC(F)(CN1CCC(Nc2ncnc3[nH]ncc23)CC1)c1ccc(Cl)cn1 [C-3] as the molecule, how does the IC50 [1] read?
Its IC50 is greater than 10000 nM.

What about the IC50 [2] of the same molecule?
Its IC50 is 26 nM.

For Cc1ccc(C(F)(F)CN2CCC(Nc3ncnc4[nH]ncc34)CC2)nc1 [C-4, N-(1-(2,2-difluoro-2-(5-methylpyridin-2-yl)ethyl)piperidin-4-yl)-1H-pyrazolo[3,4-d]pyrimidin-4-amine], which IC50 [1] is on record?
The IC50 was greater than 10000 nM.

What about the IC50 [2] of the same molecule?
Its IC50 is 52 nM.

What does the source list for FC(F)(F)c1ccc(C(F)(F)CN2CCC(Nc3ncnc4[nH]ncc34)CC2)nc1 [C-5, N-(1-(2,2-difluoro-2-(5-(trifluoromethyl)pyridin-2-yl)ethyl)piperidin-4-yl)-1H-pyrazolo[3,4-d]pyrimidin-4-amine]?
IC50 [1]: > 10000 nM; IC50 [3]: 31000 nM; immobility time ([4]; 3 mg/kg IP, vehicle group 188±6.6, p<0.05): 111 ± 18.3 s; immobility time ([4]; 10 mg/kg IP, vehicle group 188±6.6, p<0.01): 89 ± 14.4 s

Which IC50 [1] does the source give for FC(F)c1ccc(C(F)(F)CN2CCC(Nc3ncnc4[nH]ncc34)CC2)nc1 [C-6] here?
Its IC50 is greater than 10000 nM.

What about the IC50 [2] of the same molecule?
The IC50 was 34 nM.

For FCc1ccc(C(F)(F)CN2CCC(Nc3ncnc4[nH]ncc34)CC2)nc1 [C-7], which IC50 [1] is on record?
Its IC50 is greater than 10000 nM.

And the IC50 [2]?
Its IC50 is 43 nM.

How did the IC50 [1] turn out when FC(F)Oc1ccc(C(F)(F)CN2CCC(Nc3ncnc4[nH]ncc34)CC2)nc1 [C-12] was run?
The IC50 was greater than 10000 nM.

And the IC50 [2]?
Its IC50 is 23 nM.

Which results are given for Fc1cnc(C(F)(F)CN2CCC(Nc3ncnc4[nH]ncc34)CC2)c(F)c1 [C-15, N-(1-(2-(3,5-difluoropyridin-2-yl)-2,2-difluoroethyl)piperidin-4-yl)-1H-pyrazolo[3,4-d]-pyrimidin-4-amine]?
IC50 [1]: > 10000 nM; IC50 [2]: 93 nM

What does the source list for Fc1cc(Cl)cnc1C(F)(F)CN1CCC(Nc2ncnc3[nH]ncc23)CC1 [C-16, N-(1-(2-(5-chloro-3-fluoropyridin-2-yl)-2,2-difluoroethyl)piperidin-4-yl)-1H-pyrazolo[3,4-d]pyrimidin-4-amine]?
IC50 [1]: > 10000 nM; IC50 [3]: 13000 nM; IC50 [5]: 10000 nM; IC50 [2]: 30 nM

Which results are given for Cc1cnc(C(F)(F)CN2CCC(Nc3ncnc4[nH]ncc34)CC2)c(F)c1 [C-17, N-(1-(2,2-difluoro-2-(3-fluoro-5-methylpyridin-2-yl)ethyl)piperidin-4-yl)-1H-pyrazolo[3,4-d]pyrimidin-4-amine]?
IC50 [1]: > 10000 nM; IC50 [2]: 48 nM

What does the source list for Fc1cc(C(F)(F)F)cnc1C(F)(F)CN1CCC(Nc2ncnc3[nH]ncc23)CC1 [C-18, N-(1-(2,2-difluoro-2-(3-fluoro-5-(trifluoromethyl)pyridin-2-yl)-ethyl)piperidin-4-yl)-1H-pyrazolo[3,4-d]pyrimidin-4-amine]?
IC50 [1]: > 10000 nM; IC50 [2]: 59 nM; immobility time ([4]; 10 mg/kg, 20 minutes after IP dosing, vehicle group 175±14, p<0.01): 97 ± 16 s

With FC(F)(CN1CCC(Nc2ncnc3[nH]ncc23)CC1)c1ncc(Cl)cc1Cl [C-24, N-(1-(2-(3,5-dichloropyridin-2-yl)-2,2-difluoroethyl)piperidin-4-yl)-1H-pyrazolo[3,4-d]pyrimidin-4-amine] as the molecule, how does the IC50 [1] read?
The IC50 was greater than 10000 nM.

And the IC50 [2]?
The IC50 was 52 nM.

With Cc1n[nH]c2ncnc(NC3CCN(CC(F)(F)c4ccc(C(F)(F)F)cn4)CC3)c12 [C-33, N-(1-(2,2-difluoro-2-(5-(trifluoromethyl)pyridin-2-yl)ethyl)piperidin-4-yl)-3-methyl-1H-pyrazolo[3,4-d]pyrimidin-4-amine] as the molecule, how does the IC50 [1] read?
Its IC50 is greater than 10000 nM.

What about the IC50 [3] of the same molecule?
The IC50 was greater than 30000 nM.

What about the IC50 [2] of the same molecule?
The IC50 was 110 nM and 89 nM.

Which IC50 [3] does the source give for FC(F)(F)c1ccc(C(F)(F)CN2CCC(Nc3ncnc4[nH]ncc34)CC2)cn1 [C-127, N-(1-(2,2-difluoro-2-(6-(trifluoromethyl)pyridin-3-yl)ethyl)piperidin-4-yl)-1H-pyrazolo[3,4-d]pyrimidin-4-amine] here?
Its IC50 is 23000 nM.

What about the IC50 [2] of the same molecule?
The IC50 was 38 nM.

CN(C)CCCN1c2ccccc2CCc2ccccc21 [imipramine, reference compound] was tested. Which antidepressant activity ([4]; positive control, 32 mg/kg, IP) did it give?
Its antidepressant activity is “showed the expected antidepressant activity”.

From patent US10030026B2, “Difluoroethylpyridine derivatives as NR2B NMDA receptor antagonists” (Rugen Holdings (Cayman) Limited, priority 2014, dated 2018)
